Measurements published in ChEMBL document CHEMBL3045577, “Synthesis and anti-HIV activity evaluation of novel N-arylidene-2-[1-(naphthalen-1-yl)-1H-tetrazol-5-ylthio]acetohydrazides” (Med Chem Res, 2010).

Columns and labels:
[1] = tested on: Human immunodeficiency virus 1; test: Antiviral activity against Human immunodeficiency virus 1 IIIB infected human MT4 cells assessed as inhibition of virus-induced cytopathicity after 4 days by MTT assay; format: functional, organism-based; details: MT4, 96 h
[2] = Selectivity index, ratio of CC50 for human MT4 cells to EC50 for HIV-1 3B infected in MT4 cells; format: toxicity, cell-based; details: read-out: Ratio CC50/EC50
[3] = tested on: Human immunodeficiency virus 2; test: Antiviral activity against Human immunodeficiency virus type 2 (ISOLATE ROD) infected human MT4 cells assessed as inhibition of virus-induced cytopathicity after 4 days by MTT assay; format: functional, organism-based; details: Human immunodeficiency virus 2, ISOLATE ROD, MT4, 96 h
[4] = Selectivity index, ratio of CC50 for human MT4 cells to EC50 for HIV-2 ROD infected in MT4 cells; format: toxicity, cell-based; details: read-out: Ratio CC50/EC50
[5] = Cytotoxicity against Homo sapiens (human) MT4 cells by MTT assay; format: cell-based

Row | Compound | EC50 [1] [µM] | selectivity ratio [2] | EC50 [3] [µM] | selectivity ratio [4] | CC50 [5] [µM]
1 | O=C(CSc1nnnn1-c1cccc2ccccc12)N/N=C/c1ccccc1 | ≥ 21.4 | ≤ 10 | > 229 | < 1 | 216
2 | O=C(CSc1nnnn1-c1cccc2ccccc12)N/N=C/c1ccco1 | > 330 | 1 | > 330 | 1 | > 330
3 | Cc1cccc(/C=N/NC(=O)CSc2nnnn2-c2cccc3ccccc23)c1 | > 269 | < 1 | > 269 | < 1 | 269
4 | O=C1Nc2ccc(Cl)cc2[C@@](C#CC2CC2)(C(F)(F)F)O1 [EFAVIRENZ] | – | > 1430 | – | – | > 6.34
5 | COc1ccc(/C=N/NC(=O)CSc2nnnn2-c2cccc3ccccc23)c(OC)c1 | > 28.3 | < 1 | > 28.3 | < 1 | 28.3
6 | COc1cccc(/C=N/NC(=O)CSc2nnnn2-c2cccc3ccccc23)c1OC | > 192 | < 1 | > 192 | < 1 | 192
7 | O=C(CSc1nnnn1-c1cccc2ccccc12)N/N=C/c1ccc(O)cc1 | 31.6 | > 9 | > 309 | 1 | > 309
8 | O=C(CSc1nnnn1-c1cccc2ccccc12)N/N=C/c1ccccc1Cl | > 69.7 | < 1 | > 69.7 | < 1 | 69.7
9 | COc1ccc(/C=N/NC(=O)CSc2nnnn2-c2cccc3ccccc23)cc1OC | ≥ 36.3 | ≤ 5 | > 191 | < 1 | 191
10 | COc1ccc(O)c(/C=N/NC(=O)CSc2nnnn2-c2cccc3ccccc23)c1 | > 4.51 | < 1 | > 4.51 | < 1 | 4.51
11 | O=C(CSc1nnnn1-c1cccc2ccccc12)N/N=C/c1ccccc1O | > 4.85 | < 1 | > 4.85 | < 1 | 4.85
12 | Cc1ccnc2c1NC(=O)c1cccnc1N2C1CC1 [NEVIRAPINE] | – | – | – | – | > 15
13 | O=C(CSc1nnnn1-c1cccc2ccccc12)N/N=C/c1ccc(Cl)cc1 | > 296 | 1 | > 296 | 1 | > 296
14 | O=C(CSc1nnnn1-c1cccc2ccccc12)N/N=C/c1cccs1 | > 317 | 1 | > 317 | 1 | > 317
15 | O=C(CSc1nnnn1-c1cccc2ccccc12)N/N=C/c1ccccc1F | > 118 | 1 | > 118 | 1 | ≥ 118
16 | CN(C)c1ccc(/C=N/NC(=O)CSc2nnnn2-c2cccc3ccccc23)cc1 | > 290 | 1 | > 290 | 1 | > 290
17 | COc1cc(/C=N/NC(=O)CSc2nnnn2-c2cccc3ccccc23)ccc1O | > 288 | 1 | > 288 | 1 | > 288
18 | O=C(CSc1nnnn1-c1cccc2ccccc12)N/N=C/c1ccc(F)cc1 | > 308 | 1 | > 308 | 1 | > 308
19 | Cc1cn([C@H]2C[C@H](N=[N+]=[N-])[C@@H](CO)O2)c(=O)[nH]c1=O [ZIDOVUDINE] | – | > 6190 | – | – | > 93.5
20 | O=C(CSc1nnnn1-c1cccc2ccccc12)N/N=C/c1cccc(Cl)c1 | > 240 | < 1 | > 240 | < 1 | 240
21 | COc1ccc(/C=N/NC(=O)CSc2nnnn2-c2cccc3ccccc23)cc1 | > 299 | 1 | > 299 | 1 | > 299
22 | O=C(CSc1nnnn1-c1cccc2ccccc12)N/N=C/c1ccc([N+](=O)[O-])cc1 | > 261 | 1 | > 261 | 1 | ≥ 261
23 | O=C(CSc1nnnn1-c1cccc2ccccc12)N/N=C/c1cccc(O)c1 | 29.6 | 6 | > 169 | < 1 | 169
24 | CC(C)Nc1cccnc1N1CCN(C(=O)c2cc3cc(NS(C)(=O)=O)ccc3[nH]2)CC1 [DELAVIRDINE] | – | > 12 | – | – | > 3.83
